Residues, ends and D or L forms follow the SMILES beside them.
Key:
CDK2/Cyclin A2 = CDK2/Cyclin A2 (Homo sapiens, UniProt P24941); test: Inhibition of recombinant human CDK2/cyclin A2 using fluoresceinyl-Ahx-Pro-Val-Lys-Arg-Arg-Leu-Phe-Gly as substrate incubated for 45 mins by fluorescence polarization assay; type: protein-complex assay
[1] = target: Cyclin-dependent kinase 4/cyclin D1 (Homo sapiens, UniProt P24385); test: Inhibition of recombinant human CDK4/cyclin D1 using fluoresceinyl-AhxPro-Val-Lys-Arg-Arg-Leu-(3ClPhe)-Gly as substrate incubated for 45 mins by fluorescence polarization assay; type: protein-complex assay
U2OS = test: Antiproliferative activity against human U2OS cells incubated for 72 hrs by MTT assay; type: functional, cell-based
[2] = Antiproliferative activity against human DU145 cells incubated for 72 hrs by MTT assay; type: functional, cell-based; details: DU-145, 72 h

Chain of Cyclin-dependent kinase 4/cyclin D1 (P11802 whole entry): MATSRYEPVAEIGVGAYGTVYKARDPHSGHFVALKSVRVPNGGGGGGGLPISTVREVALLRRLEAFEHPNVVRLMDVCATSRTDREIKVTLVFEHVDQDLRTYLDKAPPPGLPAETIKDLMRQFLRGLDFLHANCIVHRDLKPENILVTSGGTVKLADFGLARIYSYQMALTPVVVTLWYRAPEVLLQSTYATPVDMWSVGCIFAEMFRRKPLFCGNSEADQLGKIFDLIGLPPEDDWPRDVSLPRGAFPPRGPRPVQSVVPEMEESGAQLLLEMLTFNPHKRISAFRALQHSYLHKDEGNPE
Chain of Cyclin-dependent kinase 4/cyclin D1 (P24385 whole entry): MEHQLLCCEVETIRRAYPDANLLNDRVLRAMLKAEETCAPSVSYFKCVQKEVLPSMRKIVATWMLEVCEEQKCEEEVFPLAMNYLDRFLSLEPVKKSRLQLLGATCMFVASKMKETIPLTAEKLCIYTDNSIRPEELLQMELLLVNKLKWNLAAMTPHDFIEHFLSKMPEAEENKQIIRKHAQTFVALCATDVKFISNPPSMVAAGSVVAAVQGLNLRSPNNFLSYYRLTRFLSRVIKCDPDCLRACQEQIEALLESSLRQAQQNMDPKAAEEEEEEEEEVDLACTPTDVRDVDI

| Compound | IC50 (CDK2/Cyclin A2) [µM] | IC50 [1] [µM] | IC50 (U2OS) [µM] | IC50 [2] [µM] |
| --- | --- | --- | --- | --- |
| CC(C)CC(CC(=O)NC(Cc1ccsc1)C(N)=O)NC(=O)[C@H](CCCNC(=N)N)NC(=O)c1cc(OC2CCNCC2)cc(OC2CCNCC2)c1 (stereo partly drawn) | > 30 | – | – | – |
| CC(C)CC(CC(=O)N(C)[C@@H](Cc1ccccc1)C(N)=O)NC(=O)[C@H](CCCNC(=N)N)NC(=O)c1ccc(CN2CCN(C3CCN(C)CC3)CC2)cc1 (stereo partly drawn) | 8.32 | 48.9 | – | – |
| CCOc1cc(C(=O)N[C@@H](CCCNC(=N)N)C(=O)NC(CC(=O)N(C)[C@@H](Cc2ccccc2)C(N)=O)CC(C)C)ccc1CN1CCNCC1 (stereo partly drawn) | 22.6 | 18.6 | – | – |
| CCCN1CCN(Cc2ccc(C(=O)N[C@@H](CCCNC(=N)N)C(=O)NC(CC(=O)NC(Cc3ccsc3)C(N)=O)CC(C)C)cc2)CC1 (stereo partly drawn) | 31.3 | 8.52 | – | – |
| CC(C)C[C@H](NC(=O)[C@H](CCCNC(=N)N)NC(=O)c1ccc(CNC(=N)N)cc1)C(=O)N[C@@H](CC(N)=O)C(=O)N1CCC[C@@H]1C(=O)N[C@H](Cc1ccccc1)C(=O)N[C@@H](Cc1ccccc1)C(=O)O | 0.69 | 15.3 | – | – |
| CC(C)CC(CC(=O)NC(Cc1ccsc1)C(N)=O)NC(=O)[C@H](CCCNC(=N)N)NC(=O)c1ccc(CN(C)C2CCNCC2)cc1 (stereo partly drawn) | > 50 | – | – | – |
| CC(C)CC(CC(=O)N(C)[C@@H](Cc1ccccc1)C(N)=O)NC(=O)[C@H](CCCNC(=N)N)NC(=O)c1ccc(CN2CCNC[C@@H]2C)cc1 (stereo partly drawn) | 13.4 | > 100 | 229 | 204 |
| CCN1CCN(Cc2ccc(C(=O)N[C@@H](CCCNC(=N)N)C(=O)NC(CC(=O)NC(Cc3ccsc3)C(N)=O)CC(C)C)cc2)CC1 (stereo partly drawn) | 17.4 | 74.3 | – | – |
| CC(C)CC(CC(=O)N(C)[C@@H](Cc1ccccc1)C(N)=O)NC(=O)[C@H](CCCNC(=N)N)NC(=O)c1ccc(CN2CCNCC2)c(O)c1 (stereo partly drawn) | 7.42 | 11.8 | – | – |
| CC(C)CC(CC(=O)NC(Cc1ccsc1)C(N)=O)NC(=O)[C@H](CCCNC(=N)N)NC(=O)c1ccc(C=C2CCN(C)CC2)cc1 (stereo partly drawn) | 26 | 69.9 | – | – |
| CC(C)C[C@H](NC(=O)[C@H](CCCNC(=N)N)NC(=O)c1ccc(CN2CCNCC2)cc1)C(=O)N[C@@H](CC(N)=O)C(=O)N1CCC[C@@H]1C(=O)N[C@H](Cc1ccccc1)C(=O)N[C@@H](Cc1ccccc1)C(=O)O | 5.3 | 12.9 | – | – |
| CCN1CCN(Cc2ccc(C(=O)N[C@@H](CCCNC(=N)N)C(=O)NC(CC(=O)NC(Cc3ccsc3)C(N)=O)CC(C)C)cc2)[C@@H](C)C1 (stereo partly drawn) | 6.78 | 45.6 | – | – |
| CC(C)CC(CC(=O)N(C)[C@@H](Cc1ccccc1)C(N)=O)NC(=O)[C@H](CCCNC(=N)N)NC(=O)c1ccc(CN2CCNC[C@H]2C)cc1 (stereo partly drawn) | 22.3 | 45.4 | – | – |
| CC(C)CC(CC(=O)NC(Cc1ccsc1)C(N)=O)NC(=O)[C@H](CCCNC(=N)N)NC(=O)c1ccc(CC2CCNCC2)cc1 (stereo partly drawn) | > 30 | – | – | – |
| CC(C)CC(CC(=O)NC(Cc1ccsc1)C(N)=O)NC(=O)[C@H](CCCNC(=N)N)NC(=O)c1ccc(C=C2CCNCC2)cc1 (stereo partly drawn) | 9.16 | > 100 | – | – |
| CC(C)CC(CC(=O)N(C)[C@@H](Cc1ccccc1)C(N)=O)NC(=O)[C@H](CCCNC(=N)N)NC(=O)c1ccc(OC2CCNCC2)cc1 (stereo partly drawn) | 40.4 | 31 | – | – |
| CC(C)CC(CC(=O)NC(Cc1ccsc1)C(N)=O)NC(=O)[C@H](CCCNC(=N)N)NC(=O)c1ccc(CN(C)C2CCCNC2)cc1 (stereo partly drawn) | 31 | – | 153 | – |
| CCCN1CCN(Cc2ccc(C(=O)N[C@@H](CCCNC(=N)N)C(=O)NC(CC(=O)NC(Cc3ccsc3)C(N)=O)CC(C)C)cc2)[C@@H](C)C1 (stereo partly drawn) | 22.4 | 9.36 | – | – |
| CC(C)CC(CC(=O)NC(Cc1ccsc1)C(N)=O)NC(=O)[C@H](CCCNC(=N)N)NC(=O)c1ccc(CN2CCNC[C@@H]2C)c(O)c1 (stereo partly drawn) | 13.1 | – | – | – |
| CC(C)CC(CC(=O)NC(Cc1ccsc1)C(N)=O)NC(=O)[C@H](CCCNC(=N)N)NC(=O)c1ccc(CNC2CCNCC2)cc1 (stereo partly drawn) | > 100 | – | – | – |
| CCOc1cc(C(=O)N[C@@H](CCCNC(=N)N)C(=O)N[C@@H](CC(C)C)C(=O)N[C@H](C(=O)N[C@@H](Cc2ccccc2)C(=O)O)[C@@H](C)CC)ccc1CN1CCNCC1 (HELM PEPTIDE1{[CCOc1cc(C(=O)[*:2])ccc1CN1CCNCC1].R.L.I.F}$$$$V2.0) | 5.95 | 5.14 | – | – |
| CC[C@H](C)[C@H](NC(=O)[C@H](CC(C)C)NC(=O)[C@H](CCCNC(=N)N)NC(=O)c1ccc(CN2CCN(C)CC2)cc1)C(=O)N[C@@H](Cc1ccccc1)C(=O)O (HELM PEPTIDE1{[CN1CCN(Cc2ccc(C(=O)[*:2])cc2)CC1].R.L.I.F}$$$$V2.0) | 7.92 | 11.3 | – | – |
| CC[C@H](C)[C@H](NC(=O)[C@H](CC(C)C)NC(=O)[C@H](CCCNC(=N)N)NC(=O)c1ccc(CN2CCNCC2)c(O)c1)C(=O)N[C@@H](Cc1ccccc1)C(=O)O (HELM PEPTIDE1{[O=C(c1ccc(CN2CCNCC2)c(O)c1)[*:2]].R.L.I.F}$$$$V2.0) | 4.56 | 10.4 | – | – |
| CC[C@H](C)[C@H](NC(=O)[C@H](CC(C)C)NC(=O)[C@H](C)NC(=O)c1ccc(CN2CCNCC2)cc1)C(=O)N[C@@H](Cc1ccccc1)C(=O)O (HELM PEPTIDE1{[O=C(c1ccc(CN2CCNCC2)cc1)[*:2]].A.L.I.F}$$$$V2.0) | > 100 | 51.5 | – | – |
| CC[C@H](C)[C@H](NC(=O)[C@H](CC(C)C)NC(=O)[C@H](CCCNC(=N)N)NC(=O)c1ccc(CN2CCNCC2)cc1)C(=O)N[C@@H](Cc1ccccc1)C(=O)O (HELM PEPTIDE1{[O=C(c1ccc(CN2CCNCC2)cc1)[*:2]].R.L.I.F}$$$$V2.0) | 12.9 | 11.7 | – | – |
| CC[C@H](C)[C@H](NC(=O)[C@H](CC(C)C)NC(=O)[C@H](CCCNC(=N)N)NC(=O)c1ccc(N2CCNCC2)cc1)C(=O)N[C@@H](Cc1ccccc1)C(=O)O (HELM PEPTIDE1{[O=C(c1ccc(N2CCNCC2)cc1)[*:2]].R.L.I.F}$$$$V2.0) | – | 23.8 | – | – |

Source: ChEMBL document CHEMBL3817805, “Benzamide capped peptidomimetics as non-ATP competitive inhibitors of CDK2 using the REPLACE strategy” (Bioorg Med Chem Lett, 2016)
